Marks after values point to notes of the source that are not given here.
What was measured:
Format in all cases: in vivo
[1] = biological target: T1, aryl hydrocarbon receptor (AhR) (Rattus norvegicus, UniProt P41738); assay: EMSA of liver nuclear protein binding to XRE consensus sequence; details: APE or andrographolide for 5 days
T1 construct: from tissue; host or cells: crude liver nuclear extract of treated Sprague-Dawley rats
Protocol: (§1) Nuclear proteins of liver tissues were extracted as described by Tian et al. with some modifications. Briefly, 0.1 g of liver was homogenized (1 : 9, w/v) with 0.9 mL of ice-cold 10 mM HEPES buffer (pH 7.9) containing 10 mM KCl, 1 mM MgCl2, 0.1 mM EDTA, 0.5 mM dithiothreitol, 0.5 mM PMSF, 4 μg/mL leupeptin, and 20 μg/mL aprotinin. The homogenates were placed in an ice bath for 15 min and then centrifuged at 600 ×g for 10 min. Then, 100 μL of 10% Nonidet P-40 was added to the supernatant, and the samples were allowed to sit in an ice bath for 10 min. The supernatant was centrifuged at 5,000 ×g for 5 min. The pellet, containing crude nuclei, was resuspended in 100 μL of hypertonic buffer containing 10 mM HEPES, 400 mM KCl, 1 mM MgCl2, 0.1 mM EDTA, 0.5 mM dithiothreitol, 4 μg/mL leupeptin, 20 μg/mL aprotinin, 25% glycerol, and 0.5 mM PMSF at 4°C for 45 min. Nuclear proteins were then collected by centrifugation at 12,000 ×g for 15 min.
(§2) EMSA was performed according to the method reported previously. The LightShift Chemiluminescent EMSA Kit (Pierce, Rockford, IL) and synthetic biotin-labeled double-stranded consensus oligonucleotides of DR4 (5′-[…]-3′) and xenobiotic response element (XRE) (forward: 5′-[…]-3′) were used to measure pregnane X receptor (PXR) and aryl hydrocarbon receptor (AhR) nuclear protein-DNA-binding activity. […]

CYP3A = assay: Testosterone 6β-hydroxylation in liver microsomes of treated rats; details: rat liver microsomes; oral 2 g/kg APE or 50 mg/kg AND daily for 5 days
Protocol: (§3) Liver was homogenized (1 : 4, w/v) in an ice-cold potassium phosphate buffer (pH 7.4) containing 7.4 mM K2HPO4, 2.6 mM KH2PO4, 1.15% KCl, and 1 mM phenylmethylsulfonyl fluoride (PMSF). Tissue homogenates were centrifuged at 10,000 ×g for 30 min at 4°C. The resulting supernatant was then centrifuged at 105,000 ×g for 1 h at 4°C. The microsomes thus obtained were washed several times to get rid of possible tolbutamide contamination and this can avoid tolbutamide interference of CYP activity, and the microsomes were then suspended in potassium phosphate buffer (pH 7.7) containing 7.5 mM K2HPO4, 14.5 mM KH2PO4, and 1 mM EDTA. […] Metabolites of each CYP enzyme reaction were determined by LC/MS as reported previously. The contents of total CYP and cytochrome b5 were quantified by the method of Omura and Sato [29]. Enzyme activity is expressed as picomoles of metabolite formed per minute per milligram of protein. The NADPH-CYP reductase activity was measured as described by Phillips and Langdon with the use of cytochrome c as the substrate. The microsomal protein concentration was determined by using a Coomassie Plus protein assay kit (Pierce, Rockford, IL, USA).

[2] = biological target: T2, pregnane X receptor (PXR) (Rattus norvegicus, UniProt Q9R1A7); assay: EMSA of liver nuclear protein binding to DR4 consensus sequence; details: APE or andrographolide for 5 days
T2 construct: from tissue; host or cells: crude liver nuclear extract of treated Sprague-Dawley rats
T2 sequence (Q9R1A7 1-431): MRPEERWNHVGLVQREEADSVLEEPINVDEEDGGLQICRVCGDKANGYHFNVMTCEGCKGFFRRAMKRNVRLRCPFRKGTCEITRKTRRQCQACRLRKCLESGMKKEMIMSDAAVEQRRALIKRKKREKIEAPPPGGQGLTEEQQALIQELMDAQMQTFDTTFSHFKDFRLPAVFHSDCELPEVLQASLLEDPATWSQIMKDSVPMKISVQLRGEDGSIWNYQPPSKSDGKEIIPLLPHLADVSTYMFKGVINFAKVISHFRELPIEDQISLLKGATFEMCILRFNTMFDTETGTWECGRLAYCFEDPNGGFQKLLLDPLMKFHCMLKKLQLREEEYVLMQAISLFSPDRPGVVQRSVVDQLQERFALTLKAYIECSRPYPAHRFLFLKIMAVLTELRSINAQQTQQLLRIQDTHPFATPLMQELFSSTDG
T2 sequence (Q05343 1-467 partner): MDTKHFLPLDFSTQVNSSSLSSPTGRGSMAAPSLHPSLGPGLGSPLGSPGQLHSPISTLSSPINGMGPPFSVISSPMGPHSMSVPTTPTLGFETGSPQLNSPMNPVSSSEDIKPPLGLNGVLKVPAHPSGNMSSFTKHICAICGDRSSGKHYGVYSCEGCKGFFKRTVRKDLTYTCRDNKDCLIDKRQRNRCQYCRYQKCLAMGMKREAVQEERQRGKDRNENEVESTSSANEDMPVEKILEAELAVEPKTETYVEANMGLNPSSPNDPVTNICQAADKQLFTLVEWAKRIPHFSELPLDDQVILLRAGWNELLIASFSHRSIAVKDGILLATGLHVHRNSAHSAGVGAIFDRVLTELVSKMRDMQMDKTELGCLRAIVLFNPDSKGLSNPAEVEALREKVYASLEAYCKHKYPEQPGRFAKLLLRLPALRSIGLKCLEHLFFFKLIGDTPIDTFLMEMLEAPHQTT
Protocol: as §1, §2

CYP2D = assay: Dextromethorphan O-deethylation in liver microsomes of treated rats; details: rat liver microsomes; oral 2 g/kg APE or 50 mg/kg AND daily for 5 days
Protocol: as §3

CYP1A1 = assay: Ethoxyresorufin O-deethylation in liver microsomes of treated rats; details: rat liver microsomes; oral 2 g/kg APE or 50 mg/kg AND daily for 5 days
Protocol: as §3

T1 sequence (P41738 10-853): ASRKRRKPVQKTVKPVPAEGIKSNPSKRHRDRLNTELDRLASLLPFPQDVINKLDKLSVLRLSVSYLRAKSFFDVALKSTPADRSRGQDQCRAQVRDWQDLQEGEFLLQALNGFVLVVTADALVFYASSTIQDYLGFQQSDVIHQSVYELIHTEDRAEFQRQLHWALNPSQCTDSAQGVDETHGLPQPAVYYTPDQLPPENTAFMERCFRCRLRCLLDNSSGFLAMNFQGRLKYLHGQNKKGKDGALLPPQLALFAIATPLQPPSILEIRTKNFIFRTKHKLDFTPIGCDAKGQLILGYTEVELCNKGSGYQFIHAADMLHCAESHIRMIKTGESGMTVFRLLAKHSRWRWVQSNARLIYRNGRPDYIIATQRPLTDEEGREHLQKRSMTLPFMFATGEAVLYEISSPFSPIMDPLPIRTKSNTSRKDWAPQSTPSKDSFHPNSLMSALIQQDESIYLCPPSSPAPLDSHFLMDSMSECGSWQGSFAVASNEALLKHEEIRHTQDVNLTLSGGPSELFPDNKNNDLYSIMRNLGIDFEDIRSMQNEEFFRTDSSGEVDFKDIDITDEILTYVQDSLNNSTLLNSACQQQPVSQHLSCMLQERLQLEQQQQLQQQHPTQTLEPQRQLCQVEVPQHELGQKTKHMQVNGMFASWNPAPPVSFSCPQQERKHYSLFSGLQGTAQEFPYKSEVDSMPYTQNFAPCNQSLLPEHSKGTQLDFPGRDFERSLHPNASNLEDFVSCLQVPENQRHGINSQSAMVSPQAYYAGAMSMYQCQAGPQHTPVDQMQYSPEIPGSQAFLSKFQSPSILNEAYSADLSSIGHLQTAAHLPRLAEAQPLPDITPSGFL
T1 sequence (P41739 whole entry partner): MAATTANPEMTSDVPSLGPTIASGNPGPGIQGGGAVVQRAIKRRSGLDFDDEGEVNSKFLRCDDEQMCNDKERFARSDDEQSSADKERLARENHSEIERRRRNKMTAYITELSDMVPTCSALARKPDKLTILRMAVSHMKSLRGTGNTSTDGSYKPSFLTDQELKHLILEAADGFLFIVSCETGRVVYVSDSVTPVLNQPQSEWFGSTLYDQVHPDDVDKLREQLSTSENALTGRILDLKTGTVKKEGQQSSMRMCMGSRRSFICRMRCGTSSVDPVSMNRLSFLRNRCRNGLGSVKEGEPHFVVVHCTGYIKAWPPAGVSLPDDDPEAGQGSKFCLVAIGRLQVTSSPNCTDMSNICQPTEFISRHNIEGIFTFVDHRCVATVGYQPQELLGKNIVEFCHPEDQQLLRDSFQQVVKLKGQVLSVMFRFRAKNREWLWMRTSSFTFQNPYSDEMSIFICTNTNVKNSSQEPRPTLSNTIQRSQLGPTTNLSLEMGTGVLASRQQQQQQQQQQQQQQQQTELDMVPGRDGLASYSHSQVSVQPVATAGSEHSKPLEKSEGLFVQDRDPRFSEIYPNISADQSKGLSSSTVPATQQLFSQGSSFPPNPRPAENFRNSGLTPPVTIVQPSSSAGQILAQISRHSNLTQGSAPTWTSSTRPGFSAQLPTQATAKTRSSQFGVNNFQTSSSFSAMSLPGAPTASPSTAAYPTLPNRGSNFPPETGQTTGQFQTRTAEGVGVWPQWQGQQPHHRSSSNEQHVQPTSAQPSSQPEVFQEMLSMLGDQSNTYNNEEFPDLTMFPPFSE

- Binding activity of the XRE consensus sequence to nuclear protein AhR [1]: enhanced
- Testosterone 6β-hydroxylase (3A) (CYP3A): 1195 ± 284^b pmol/min/mg protein
- Binding activity of the DR4 consensus sequence to nuclear protein PXR [2]: enhanced
- Dextromethorphan O-deethylase (2D) (CYP2D): 79.1 ± 30.4 pmol/min/mg protein
- Ethoxyresorufin O-deethylase (1A1) (CYP1A1): 66.6 ± 13.5^b pmol/min/mg protein
Structure (SMILES): C=C1CC[C@@H]2[C@](C)(CO)[C@H](O)CC[C@@]2(C)[C@@H]1C/C=C1/C(=O)OC[C@H]1O [andrographolide, Andrographolide]

Reference: publication PMC3753754, “Andrographis paniculata Extract and Andrographolide Modulate the Hepatic Drug Metabolism System and Plasma Tolbutamide Concentrations in Rats” (Evidence-based Complementary and Alternative Medicine : eCAM, 2013)
